Test results reported in ChEMBL document CHEMBL3588756, “Allobetulin derived seco-oleananedicarboxylates act as inhibitors of acetylcholinesterase” (Bioorg Med Chem Lett, 2015).

How the values were obtained:
[1] = Solubility of the compound in aqueous buffer; format: physicochemical
[2] = molecular target: T1, Acetylcholinesterase (Electrophorus electricus, UniProt O42275); assay: Inhibition of Electrophorus electricus acetylcholinesterase using acetylthiocholine iodide as substrate preincubated for 20 mins followed by substrate addition measured for 30 mins by Ellman's method
[3] = molecular target: Cholinesterase (Equus caballus, UniProt P81908); assay: Inhibition of equine serum butyrylcholinesterase using butyrylthiocholineidioide as substrate preincubated for 20 mins followed by substrate addition measured for 30 mins by Ellman's method
[4] = Cytotoxicity against mouse NIH/3T3 cells assessed as cell survival after 96 hrs by sulforhodamine-B assay; format: cell-based; settings: NIH3T3, 96 h
[5] = molecular target: T1, Acetylcholinesterase; assay: Uncompetitive Inhibition of Electrophorus electricus acetylcholinesterase using acetylthiocholine iodide as substrate preincubated for 20 mins followed by substrate addition measured for 30 mins by Ellman's method
[6] = molecular target: T1, Acetylcholinesterase; assay: Competitive Inhibition of Electrophorus electricus acetylcholinesterase using acetylthiocholine iodide as substrate preincubated for 20 mins followed by substrate addition measured for 30 mins by Ellman's method

T1 sequence (O42275 whole entry): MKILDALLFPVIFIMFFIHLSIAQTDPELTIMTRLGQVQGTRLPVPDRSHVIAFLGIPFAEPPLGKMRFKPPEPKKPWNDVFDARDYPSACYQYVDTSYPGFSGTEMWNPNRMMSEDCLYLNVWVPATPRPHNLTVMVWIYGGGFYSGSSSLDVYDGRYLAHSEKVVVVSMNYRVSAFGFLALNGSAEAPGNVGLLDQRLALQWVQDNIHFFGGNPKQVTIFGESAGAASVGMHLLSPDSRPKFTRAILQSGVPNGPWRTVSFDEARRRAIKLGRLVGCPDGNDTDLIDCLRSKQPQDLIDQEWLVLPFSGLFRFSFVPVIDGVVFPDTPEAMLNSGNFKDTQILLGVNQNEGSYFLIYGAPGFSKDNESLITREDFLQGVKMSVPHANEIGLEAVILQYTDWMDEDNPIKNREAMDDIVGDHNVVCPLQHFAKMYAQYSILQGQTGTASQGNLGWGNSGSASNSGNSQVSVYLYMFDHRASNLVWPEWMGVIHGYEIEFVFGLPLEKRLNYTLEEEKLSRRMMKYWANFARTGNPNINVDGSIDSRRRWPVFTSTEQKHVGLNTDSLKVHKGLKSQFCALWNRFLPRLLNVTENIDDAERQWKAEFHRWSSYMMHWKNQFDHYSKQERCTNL
Cholinesterase, sequence (P81908 whole entry): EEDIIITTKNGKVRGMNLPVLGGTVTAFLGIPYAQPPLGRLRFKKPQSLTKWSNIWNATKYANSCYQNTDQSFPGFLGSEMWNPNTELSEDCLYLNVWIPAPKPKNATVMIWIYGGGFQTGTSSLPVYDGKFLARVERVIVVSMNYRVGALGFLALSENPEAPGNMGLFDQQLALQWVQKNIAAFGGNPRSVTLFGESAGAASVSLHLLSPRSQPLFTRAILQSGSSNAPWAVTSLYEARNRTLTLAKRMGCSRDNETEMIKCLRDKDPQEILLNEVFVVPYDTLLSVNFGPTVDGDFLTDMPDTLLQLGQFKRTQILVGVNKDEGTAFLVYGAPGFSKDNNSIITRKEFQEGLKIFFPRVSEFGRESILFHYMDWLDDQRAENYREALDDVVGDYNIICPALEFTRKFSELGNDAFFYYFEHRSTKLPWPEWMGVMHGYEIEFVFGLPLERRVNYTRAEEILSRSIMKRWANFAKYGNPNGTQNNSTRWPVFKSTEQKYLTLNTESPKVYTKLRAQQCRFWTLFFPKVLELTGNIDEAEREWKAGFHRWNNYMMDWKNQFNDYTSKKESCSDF

SMILES	EC50 [4]	Ki [5]	Ki [6]	also measured
C=CCCOC(=O)CC[C@]1(C)[C@H]2CC[C@@H]3[C@H]4[C@H]5OC[C@@]4(CCC5(C)C)CC[C@@]3(C)[C@]2(C)CC[C@H]1C(=C)C	–	–	–	solubility [1]: Insoluble
N[C@@H](CO)C(=O)O [SERINE]	–	–	–	IC50 [2]: 0.015 µM; IC50 [3]: 0.016 µM
C#CCOC(=O)CC[C@]1(C)[C@H]2CC[C@@H]3[C@H]4[C@H]5OC[C@@]4(CCC5(C)C)CC[C@@]3(C)[C@]2(C)CC[C@H]1C(=C)C	> 30 µM	2.48 µM	3.33 µM	–
C#CCOC(=O)C[C@]1(C)[C@H]2CC[C@@H]3[C@H]4[C@H]5OC[C@@]4(CCC5(C)C)CC[C@@]3(C)[C@]2(C)CC[C@H]1C(C)(C)C(=O)OCC#C	7 µM	4.63 µM	10.5 µM	–
C=C(C)[C@@H]1CC[C@]2(C)[C@H](CC[C@@H]3[C@H]4[C@H]5OC[C@@]4(CCC5(C)C)CC[C@]32C)[C@@]1(C)CCC(=O)O	> 30 µM	–	–	Ki [2]: 31.8 µM
C=CCCOC(=O)C[C@]1(C)[C@H]2CC[C@@H]3[C@H]4[C@H]5OC[C@@]4(CCC5(C)C)CC[C@@]3(C)[C@]2(C)CC[C@H]1C(C)(C)C(=O)OCCC=C	> 30 µM	–	–	–
